From patent US20250313563A1, “GLYCOGEN SYNTHASE KINASE 3 INHIBITORS AND USES THEREOF” (The Broad Institute, Inc., priority 2022, published 2025)
Read-outs that look alike come from different tables or passages of the source.

Legend:
[1] = target: GSK3α (GST-full length GSK3α) (Homo sapiens (Human), UniProt P49840); experiment: GSK3α TR-FRET kinase assay; assay type: biochemical
Outline: (§1)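 IC50s came from the normalized 665/615 TR-FRET ratio after Tb-anti-pSer641 antibody and streptavidin-d2 detection of phosphorylated biotin-glycogen synthase peptide (200 nM). ATP was 4 μM for GSK3α, 2 μM for GSK3b, or 1 mM; 1 nM enzyme, 100 min, ambient, pH 7.5, after 30-min compound preincubation.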

[2] = target: GSK3b (GST-full length GSK3b) (Homo sapiens (Human), UniProt P49841); experiment: GSK3b TR-FRET kinase assay; assay type: biochemical
Chain of GSK3b (GST-full length GSK3b) (P49841 whole entry): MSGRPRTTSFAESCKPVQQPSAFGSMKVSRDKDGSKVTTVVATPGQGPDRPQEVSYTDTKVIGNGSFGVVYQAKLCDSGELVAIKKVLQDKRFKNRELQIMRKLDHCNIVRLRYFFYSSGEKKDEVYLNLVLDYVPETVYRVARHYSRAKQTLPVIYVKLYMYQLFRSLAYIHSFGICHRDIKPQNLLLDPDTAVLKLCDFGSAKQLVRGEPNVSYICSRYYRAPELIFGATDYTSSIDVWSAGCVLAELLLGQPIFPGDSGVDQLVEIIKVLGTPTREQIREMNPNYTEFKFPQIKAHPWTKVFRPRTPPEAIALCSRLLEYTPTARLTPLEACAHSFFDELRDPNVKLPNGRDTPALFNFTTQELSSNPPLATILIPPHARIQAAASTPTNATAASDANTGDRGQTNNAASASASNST
Outline: as §1

[3] = 1 nM GSK3α, 4 μM ATP, 30 minute preincubation, read-out: GSK3-A TR-FRET BIOCHEMICAL (TR-FRET), IC50
[4] = 1 nM GSK3b, 2 μM ATP, 30 minute preincubation, read-out: GSK3-B TR-FRET BIOCHEMICAL (TR-FRET), IC50
[5] = 1 nM GSK3α, 4 μM ATP, 30 minute preincubation, Table 16, read-out: GSK3-A TR-FRET BIOCHEMICAL (TR-FRET)
[6] = 1 nM GSK3b, 2 μM ATP, 30 minute preincubation, Table 16, read-out: GSK3-B TR-FRET BIOCHEMICAL (TR-FRET)
[7] = 1 nM GSK3α, 4 μM ATP, 30 minute preincubation, Table 16, read-out: GSK3-A TR-FRET BIOCHEMICAL (TR-FRET), IC50
[8] = 1 nM GSK3b, 2 μM ATP, 30 minute preincubation, Table 16, read-out: GSK3-B TR-FRET BIOCHEMICAL (TR-FRET), IC50

Chain of GSK3α (GST-full length GSK3α) (P49840 whole entry): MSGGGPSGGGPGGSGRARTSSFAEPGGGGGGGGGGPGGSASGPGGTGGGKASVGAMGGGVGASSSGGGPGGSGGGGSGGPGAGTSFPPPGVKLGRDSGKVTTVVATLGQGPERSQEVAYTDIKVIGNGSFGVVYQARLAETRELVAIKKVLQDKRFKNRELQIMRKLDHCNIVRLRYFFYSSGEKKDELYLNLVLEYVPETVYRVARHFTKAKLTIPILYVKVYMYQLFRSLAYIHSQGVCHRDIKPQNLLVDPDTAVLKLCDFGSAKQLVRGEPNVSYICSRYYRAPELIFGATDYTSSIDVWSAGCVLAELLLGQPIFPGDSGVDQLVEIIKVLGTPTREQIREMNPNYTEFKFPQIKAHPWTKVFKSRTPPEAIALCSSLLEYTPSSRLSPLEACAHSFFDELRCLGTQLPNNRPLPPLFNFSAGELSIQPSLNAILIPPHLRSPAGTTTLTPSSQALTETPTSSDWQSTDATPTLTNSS

Structure (SMILES) | IC50 [1, 7] [nM] | IC50 [2, 8] [nM] | also measured
CC1(C)CC(=O)C2=C(C1)Nc1n[nH]cc1C21CCC2(CC1)COC2 [Compound 883977] |  |  | IC50 [1, 3]: ≤ 100 nM; IC50 [2, 4]: 100 to 1000 nM
CC1(C)CC(=O)C2=C(C1)Nc1n[nH]cc1C21CCCCCC1 [Compound 883978] |  |  | IC50 [1, 5]: 100 to 1000 nM; IC50 [2, 6]: 100 to 1000 nM
CC[C@@]1(c2cccc(C(F)(F)F)c2)C2=C(Nc3n[nH]cc31)[C@H](C)CN(C)C2=O [Compound 883980] |  |  | IC50 [1, 3]: ≤ 100 nM; IC50 ([1]; read-out: GSK3-A (TR-FRET 1 mM ATP), GMean, IC50, 1 mM ATP, geometric mean): 100 to 1000 nM; IC50 [2, 4]: ≤ 100 nM; IC50 ([2]; read-out: GSK3-B (TR-FRET 1 mM ATP), GMean, IC50, 1 mM ATP, geometric mean): 1000 to 5000 nM
CC[C@]1(c2cccc(C(F)(F)F)c2)C2=C(Nc3n[nH]cc31)[C@@H](C)CN(C)C2=O [Compound 883981] |  |  | IC50 [1, 3]: > 5000 nM; IC50 [2, 4]: > 5000 nM
CC[C@]1(c2cccc(C(F)(F)F)c2)C2=C(Nc3n[nH]cc31)[C@H](C)CN(C)C2=O [Compound 883982] |  |  | IC50 [1, 3]: > 5000 nM; IC50 [2, 4]: > 5000 nM
CCC1(c2cccc(-c3ccncc3)c2)C2=C(CC(C)(C)CC2=O)Nc2n[nH]cc21 (centres unmarked) [Compound 883984] | ≤ 100 | ≤ 100 | 
CCC1(c2cccc(-c3ccncc3F)c2)C2=C(CC(C)(C)CC2=O)Nc2n[nH]cc21 (centres unmarked) [Compound 883986] | ≤ 100 | ≤ 100 | 
CCC1(c2cccc(-c3ccnc(C)c3)c2)C2=C(CC(C)(C)CC2=O)Nc2n[nH]c(C)c21 (centres unmarked) [Compound 883987] | ≤ 100 | 100 to 1000 | 
CCC1(c2cccc(-c3ccnc(C(F)(F)F)c3)c2)C2=C(CC(C)(C)CC2=O)Nc2n[nH]c(C)c21 (centres unmarked) [Compound 883989] | ≤ 100 | 100 to 1000 | 
CCC1(c2cccc(-c3ccnc(N(C)C)c3)c2)C2=C(CC(C)(C)CC2=O)Nc2n[nH]c(C)c21 (centres unmarked) [Compound 883990] | ≤ 100 | 100 to 1000 | 
CCC1(c2cccc(-c3ccncc3C)c2)C2=C(CC(C)(C)CC2=O)Nc2n[nH]c(C)c21 (centres unmarked) [Compound 883991] | ≤ 100 | ≤ 100 | 
CCC1(c2cccc(-c3ccnn3C)c2)C2=C(CC(C)(C)CC2=O)Nc2n[nH]c(C)c21 (centres unmarked) [Compound 883992] | ≤ 100 | ≤ 100 | 
CCC1(c2cccc(-c3cnn(C)c3C)c2)C2=C(CC(C)(C)CC2=O)Nc2n[nH]c(C)c21 (centres unmarked) [Compound 883993] | ≤ 100 | ≤ 100 | 
CCC1(c2cccc(-c3cn[nH]c3)c2)C2=C(CC(C)(C)CC2=O)Nc2n[nH]c(C)c21 (centres unmarked) [Compound 883994] | ≤ 100 | ≤ 100 | 
CCC1(c2cccc(-c3c(C)nn(C)c3C)c2)C2=C(CC(C)(C)CC2=O)Nc2n[nH]c(C)c21 (centres unmarked) [Compound 883995] | ≤ 100 | ≤ 100 | 
CCC1(c2cccc(-c3cnn(CCOC)c3)c2)C2=C(CC(C)(C)CC2=O)Nc2n[nH]c(C)c21 (centres unmarked) [Compound 883996] | ≤ 100 | 100 to 1000 | 
CCC1(c2cccc(-c3ccn(C)n3)c2)C2=C(CC(C)(C)CC2=O)Nc2n[nH]c(C)c21 (centres unmarked) [Compound 883999] | ≤ 100 | ≤ 100 | 
CCC1(c2cccc(-c3cncn3C)c2)C2=C(CC(C)(C)CC2=O)Nc2n[nH]c(C)c21 (centres unmarked) [Compound 884001] | ≤ 100 | ≤ 100 | 
CCC1(c2cccc(-c3cnn4c3CCCC4)c2)C2=C(CC(C)(C)CC2=O)Nc2n[nH]c(C)c21 (centres unmarked) [Compound 884002] | ≤ 100 | ≤ 100 | 
CCC1(c2cccc(-c3cn(C)nc3C)c2)C2=C(CC(C)(C)CC2=O)Nc2n[nH]c(C)c21 (centres unmarked) [Compound 884003] | ≤ 100 | ≤ 100 | 
CC1(C)CC(=O)C2=C(C1)Nc1n[nH]cc1[C@]21C[C@@H](n2cccn2)C1 [Compound 884004] |  |  | IC50 [1, 5]: ≤ 100 nM; IC50 [2, 6]: ≤ 100 nM
CC1(C)CC(=O)C2=C(C1)Nc1n[nH]cc1[C@]21C[C@H](n2cccn2)C1 [Compound 884005] |  |  | IC50 [1, 5]: ≤ 100 nM; IC50 [2, 6]: ≤ 100 nM
CC(C)[C@@H]1C[C@@]2(CCO1)C1=C(CC(C)(C)CC1=O)Nc1n[nH]cc12 [Compound 884013] | 1000 to 5000 | > 5000 | 
CC(C)[C@H]1C[C@]2(CCO1)C1=C(CC(C)(C)CC1=O)Nc1n[nH]cc12 [Compound 884014] | 1000 to 5000 | > 5000 | 
CC[C@]1(C)C2=C(CC(C)(C)CC2=O)Nc2n[nH]cc21 [Compound 884019] | 100 to 1000 | 1000 to 5000 | 
CC[C@]1(C)C2=C(CC(C)(C)CC2=O)Nc2n[nH]cc21 [Compound 884020] | > 5000 | > 5000 | 
CC1(C)CC(=O)C2=C(C1)Nc1n[nH]cc1[C@]21CCO[C@@H](C(F)(F)F)C1 [Compound 884021] |  |  | IC50 [1, 5]: 100 to 1000 nM; IC50 [2, 6]: 100 to 1000 nM
